Measurements taken from ChEMBL document CHEMBL5390280, “Design, Synthesis, and Biological Evaluation of an Orally Bioavailable, Potent, and Selective ROCK2 Inhibitor for Psoriasis Treatment” (J Med Chem, 2023).
The source made the active and inactive calls. The rule behind the calls is not given here.

How the values were obtained:
Mus musculus [1] = test: Anti-inflammatory activity in Balb/c mouse model of IMQ-induced skin inflammation assessed as decrease in serum IL-17F level at 40 mg/kg, po administered daily for 7 days by IHC analysis; assay type: functional, organism-based; conditions: time 7.0 day
HaCaT [2] = test: Anti-psoriasis effect in KGF-stimulated human HaCaT cells assessed as decrease in pSTAT3 level at 2 to 5 uM incubated for 24 hrs by Western blot analysis; assay type: functional, cell-based; conditions: dose 2-5 µM
Mus musculus [3] = test: Anti-inflammatory activity in Balb/c mouse model of IMQ-induced skin inflammation assessed as decrease in Ki67+ cells in epidermis of dorsal skin at 80 mg/kg, po administered daily for 7 days by IHC analysis; assay type: functional, organism-based; conditions: time 7.0 day
[4] = Volume of distribution at steady state in Balb/c mouse at 10 mg/kg, iv measured for 0.08 to 24 hrs by LC-MS/MS analysis; assay type: ADME, organism-based; conditions: in vivo, time 0.08-24 hrs, read-out: Vdss
Mus musculus [5] = test: Anti-inflammatory activity in Balb/c mouse model of IMQ-induced skin inflammation assessed as decrease in serum IL-17F level at 80 mg/kg, po administered daily for 7 days by IHC analysis; assay type: functional, organism-based; conditions: time 7.0 day
Mus musculus [6] = test: Anti-inflammatory activity in Balb/c mouse model of IMQ-induced skin inflammation assessed as decrease in Ki67+ cells in dermis of dorsal skin at 80 mg/kg, po administered daily for 7 days by IHC analysis; assay type: functional, organism-based; conditions: time 7.0 day
HaCaT [7] = test: Anti-psoriasis effect in KGF-stimulated human HaCaT cells assessed as decrease in N-cadherin level at 2 to 5 uM incubated for 24 hrs by Western blot analysis; assay type: functional, cell-based; conditions: dose 2-5 µM
Mus musculus [8] = test: Anti-inflammatory activity in Balb/c mouse model of IMQ-induced skin inflammation assessed as reduction in skin roughness at 20 to 80 mg/kg, po administered daily for 7 days; assay type: functional, organism-based; conditions: dose 20-80 mg/kg, time 7.0 day
Mus musculus [9] = test: Anti-inflammatory activity in Balb/c mouse model of IMQ-induced skin inflammation assessed as decrease in IL-17A+ T cells in dorsal skin administered orally daily for 7 days by high power field microscopy; assay type: functional, organism-based; conditions: T-cell, dose 20-80 mg/kg, route po, time 7.0 day
[10] = target: Rho-associated protein kinase 1 (Homo sapiens, UniProt Q13464); test: Inhibition of ROCK1 (unknown origin) by HTRF assay
Mus musculus [11] = test: In vivo inhibition of ROCK2 in Balb/c mouse model of IMQ-induced skin inflammation assessed as decrease in pSTAT5+ cells in dorsal skin at 20 to 80 mg/kg, po administered daily for 7 days by high power field microscopy; assay type: functional, organism-based; conditions: dose 20-80 mg/kg, time 7.0 day
[12] = target: Rho-associated protein kinase 2 (Homo sapiens, UniProt O75116); test: Inhibition of ROCK2 (unknown origin) by HTRF assay
Mus musculus [13] = test: Anti-inflammatory activity in Balb/c mouse model of IMQ-induced skin inflammation assessed as decrease in IL-23 mRNA level in dorsal skin at 20 to 40 mg/kg, po administered daily for 7 days by RT-qPCR analysis; assay type: functional, organism-based; conditions: dose 20-40 mg/kg, time 7.0 day

Sequence of Rho-associated protein kinase 1 (Q13464 whole entry): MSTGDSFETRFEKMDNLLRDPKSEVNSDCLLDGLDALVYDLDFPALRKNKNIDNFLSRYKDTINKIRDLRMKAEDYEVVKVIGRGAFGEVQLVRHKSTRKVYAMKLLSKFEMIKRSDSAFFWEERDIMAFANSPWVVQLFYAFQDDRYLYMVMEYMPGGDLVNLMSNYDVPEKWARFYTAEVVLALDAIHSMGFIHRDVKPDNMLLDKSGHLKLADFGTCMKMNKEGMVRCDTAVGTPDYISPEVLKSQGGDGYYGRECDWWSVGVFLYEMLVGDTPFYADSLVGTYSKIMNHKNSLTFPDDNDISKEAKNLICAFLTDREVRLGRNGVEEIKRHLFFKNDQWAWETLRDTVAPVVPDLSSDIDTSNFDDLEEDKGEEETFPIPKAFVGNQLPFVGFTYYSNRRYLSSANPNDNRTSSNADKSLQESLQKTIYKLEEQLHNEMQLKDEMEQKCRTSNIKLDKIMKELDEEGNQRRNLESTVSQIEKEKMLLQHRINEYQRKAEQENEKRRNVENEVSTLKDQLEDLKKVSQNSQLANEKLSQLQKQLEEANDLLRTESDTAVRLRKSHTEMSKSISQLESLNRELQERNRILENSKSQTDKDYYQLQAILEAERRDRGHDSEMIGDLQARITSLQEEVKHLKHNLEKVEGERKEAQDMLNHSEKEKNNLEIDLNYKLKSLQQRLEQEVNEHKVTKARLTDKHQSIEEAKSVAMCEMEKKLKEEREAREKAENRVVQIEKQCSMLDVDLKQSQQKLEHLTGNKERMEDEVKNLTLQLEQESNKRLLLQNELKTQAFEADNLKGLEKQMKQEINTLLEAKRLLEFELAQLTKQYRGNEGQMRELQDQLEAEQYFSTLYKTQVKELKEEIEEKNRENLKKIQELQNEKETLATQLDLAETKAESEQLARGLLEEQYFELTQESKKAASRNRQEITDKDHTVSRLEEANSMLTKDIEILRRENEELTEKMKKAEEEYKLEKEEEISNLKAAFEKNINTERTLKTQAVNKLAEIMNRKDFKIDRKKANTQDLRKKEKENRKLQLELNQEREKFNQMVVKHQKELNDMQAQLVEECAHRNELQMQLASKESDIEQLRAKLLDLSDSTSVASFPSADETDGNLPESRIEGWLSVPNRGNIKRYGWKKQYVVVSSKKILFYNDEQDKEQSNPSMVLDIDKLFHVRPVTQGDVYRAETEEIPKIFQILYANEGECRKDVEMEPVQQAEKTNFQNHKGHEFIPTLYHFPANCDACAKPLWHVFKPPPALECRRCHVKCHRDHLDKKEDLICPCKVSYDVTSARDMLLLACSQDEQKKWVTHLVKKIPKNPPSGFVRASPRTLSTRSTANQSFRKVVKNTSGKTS
Sequence of Rho-associated protein kinase 2 (O75116 whole entry): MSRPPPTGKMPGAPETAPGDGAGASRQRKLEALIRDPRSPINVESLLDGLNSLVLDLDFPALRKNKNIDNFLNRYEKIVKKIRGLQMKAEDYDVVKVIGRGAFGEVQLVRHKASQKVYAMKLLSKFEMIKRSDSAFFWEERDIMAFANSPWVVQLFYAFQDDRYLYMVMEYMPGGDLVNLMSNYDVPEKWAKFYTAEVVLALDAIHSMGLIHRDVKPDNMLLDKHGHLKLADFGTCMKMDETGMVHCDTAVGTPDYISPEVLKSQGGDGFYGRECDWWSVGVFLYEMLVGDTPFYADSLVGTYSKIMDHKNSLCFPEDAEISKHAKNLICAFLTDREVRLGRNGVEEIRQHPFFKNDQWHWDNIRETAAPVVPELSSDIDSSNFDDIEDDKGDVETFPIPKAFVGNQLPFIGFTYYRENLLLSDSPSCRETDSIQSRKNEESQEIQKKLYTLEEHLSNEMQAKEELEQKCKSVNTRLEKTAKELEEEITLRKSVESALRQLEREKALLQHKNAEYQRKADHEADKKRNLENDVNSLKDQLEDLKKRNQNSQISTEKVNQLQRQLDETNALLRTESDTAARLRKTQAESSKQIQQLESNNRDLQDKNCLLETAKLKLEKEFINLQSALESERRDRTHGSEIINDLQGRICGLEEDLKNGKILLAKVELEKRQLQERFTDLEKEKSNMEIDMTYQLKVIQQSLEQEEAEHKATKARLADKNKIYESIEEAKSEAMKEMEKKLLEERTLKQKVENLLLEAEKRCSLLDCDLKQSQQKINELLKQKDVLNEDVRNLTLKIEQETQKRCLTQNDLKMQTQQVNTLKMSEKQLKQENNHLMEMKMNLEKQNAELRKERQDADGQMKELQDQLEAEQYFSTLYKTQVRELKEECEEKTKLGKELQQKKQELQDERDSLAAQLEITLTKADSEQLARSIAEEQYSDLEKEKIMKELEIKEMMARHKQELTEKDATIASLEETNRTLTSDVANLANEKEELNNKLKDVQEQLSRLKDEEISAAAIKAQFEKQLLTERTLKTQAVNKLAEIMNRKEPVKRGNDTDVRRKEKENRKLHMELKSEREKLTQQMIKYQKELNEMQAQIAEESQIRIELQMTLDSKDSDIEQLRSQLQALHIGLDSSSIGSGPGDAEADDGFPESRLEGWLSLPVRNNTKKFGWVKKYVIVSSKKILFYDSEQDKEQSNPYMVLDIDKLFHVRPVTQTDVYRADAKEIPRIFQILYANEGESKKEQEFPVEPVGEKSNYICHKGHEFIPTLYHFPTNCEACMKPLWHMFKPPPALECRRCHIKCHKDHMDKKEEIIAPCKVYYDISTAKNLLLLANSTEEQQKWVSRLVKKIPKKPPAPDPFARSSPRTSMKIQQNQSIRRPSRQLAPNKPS

**Q.** What does the source list for Cc1cc(=O)n(-c2cccc(CN[C@H]3CCC[C@H](Nc4ccc5[nH]ncc5c4)C3)c2)cc1F?
**A.** Activity (Mus musculus [1]): Active; Activity (HaCaT [2]): Active; Activity (Mus musculus [3]): Active; Vd [4]: 8.63 L/kg; Activity (Mus musculus [5]): inactive; Activity (Mus musculus [6]): Active; Activity (HaCaT [7]): Active; Activity (Mus musculus [8]): Active; Activity (Mus musculus [9]): Dose-Dependent Effect; IC50 [10]: 71.2 nM; Activity (Mus musculus [11]): Active; IC50 [12]: 3.7 nM; Activity (Mus musculus [13]): Active
